Source: patent publication US8026218B2, “Bifunctional analgesic compounds for opioid receptor agonists and neurokinin-1 receptor antagonists” (The University of Arizona, priority 2006, dated 2011)
Read-outs that look alike come from different tables or passages of the source. Peptide text beside a SMILES is read from it.

Columns and labels:
[1] = biological target: T1, human δ opioid receptors (hDOR) (Homo sapiens, UniProt P41143); assay: [35S]GTP-γ-S binding assay, hDOR; assay type: biochemical
T1 construct: expressed in transfected cells; host or cells: HN9.10 neuroblastoma cell line, pCDNA3, neomycin-selected clones

[2] = biological target: T1, human δ opioid receptors (hDOR); assay: Radioligand competition binding, [3H]DPDPE, hDOR membranes; conditions: for LogIC50, hDOR, [3H]DPDPE: membranes from transfected HN9.10 cells
δ opioid receptors (MVD) = biological target: T2, δ opioid receptors (MVD) (Mus musculus, UniProt P32300); assay: Mouse isolated vas deferens (MVD) assay, opioid agonist
T2 construct: from tissue; host or cells: mouse (ICR) isolated vas deferens

[3] = biological target: T3, rat μ opioid receptors (rMOR) (Rattus norvegicus, UniProt P33535); assay: Radioligand competition binding, [3H]DAMGO, rMOR membranes
T3 construct: expressed in transfected cells; host or cells: HN9.10 neuroblastoma cell line, pCDNA3, neomycin-selected clones

[4] = biological target: T3, rat μ opioid receptors (rMOR); assay: biochemical; assay type: biochemical
rat NK1 (rNK1) receptor = biological target: T4, rat NK1 (rNK1) receptor (Rattus norvegicus, UniProt P14600); assay: Radioligand competition binding, [3H]substance P, rNK1/CHO membranes; conditions: for IC50: membranes from transfected CHO cells
T4 construct: expressed in transfected cells; host or cells: CHO (rNK-1/CHO cell line from Dr. James Krause)

[5] = biological target: T5, Substance P receptors (guinea pig NK1) (Cavia porcellus, UniProt P30547); assay: Guinea pig isolated ileum (GPI) assay with substance P stimulation in presence of 1 μM naloxone; conditions: for activation at 1 µM: read-out: Substance P GPI agonist (A50), contraction relative to initial muscle contraction with KCl
T5 construct: from tissue; host or cells: guinea pig (Hartley) ileum LMMP, 1 μM naloxone present

[6] = biological target: T6, human NK1 receptor (hNK1) (Homo sapiens, UniProt P25103); assay: Radioligand competition binding, [3H]-Substance P, hNK1
T6 construct: expressed in transfected cells

μ opioid receptors (GPI) = assay: Guinea pig isolated ileum (GPI) assay, opioid agonist; set-up: GPI/LMMP Opioid(m) Agonist, % inh.: unit of the concentration uncertain; conditions: for GPI/LMMP Opioid(m) Agonist, % inh.: Table 28, at 1 (unit uncertain);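 as to all read-outs here: inhibition of electrically evoked contractions (0.1 Hz, 0.4 msec, supramaximal voltage) in organ baths at 37 °C, contraction height 3 min after each cumulative dose versus the 1 min before dosing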
[7] = read-out: EC50, hDOR, [35S]GTP-γ-S binding
[8] = read-out: Emax, hDOR, [35S]GTP-γ-S binding
[9] = read-out: GTP binding hDOR EC50
[10] = read-out: GTP binding hDOR Emax
[11] = read-out: GTP binding hDOR Emax (%)
[12] = Table 28, read-out: MVD Opioid (d) Agonist (IC50; nM)
[13] = Table 39, read-out: MVD opioid(delta) agonist (IC50; nM)
[14] = electrically stimulated isolated tissue, read-out: MVD (δ), IC50
[15] = Substance P antagonist, GPI, Ke, in the presence of 1 μM naloxone
[16] = Table 39, concentration not given
[17] = IC50, rNK1, Substance P radioligand
[18] = LogIC50, rNK1, Substance P radioligand

T1 sequence (P41143 whole entry): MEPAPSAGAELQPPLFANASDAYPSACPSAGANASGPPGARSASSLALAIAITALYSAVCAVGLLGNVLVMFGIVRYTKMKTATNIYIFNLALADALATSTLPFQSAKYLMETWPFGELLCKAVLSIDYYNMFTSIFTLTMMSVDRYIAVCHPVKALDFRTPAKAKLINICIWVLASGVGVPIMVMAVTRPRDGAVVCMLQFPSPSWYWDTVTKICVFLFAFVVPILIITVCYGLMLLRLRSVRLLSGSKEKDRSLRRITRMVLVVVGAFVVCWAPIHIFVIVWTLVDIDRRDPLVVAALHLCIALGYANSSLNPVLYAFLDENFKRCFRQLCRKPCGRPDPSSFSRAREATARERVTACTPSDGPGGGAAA
T3 sequence (P33535 whole entry): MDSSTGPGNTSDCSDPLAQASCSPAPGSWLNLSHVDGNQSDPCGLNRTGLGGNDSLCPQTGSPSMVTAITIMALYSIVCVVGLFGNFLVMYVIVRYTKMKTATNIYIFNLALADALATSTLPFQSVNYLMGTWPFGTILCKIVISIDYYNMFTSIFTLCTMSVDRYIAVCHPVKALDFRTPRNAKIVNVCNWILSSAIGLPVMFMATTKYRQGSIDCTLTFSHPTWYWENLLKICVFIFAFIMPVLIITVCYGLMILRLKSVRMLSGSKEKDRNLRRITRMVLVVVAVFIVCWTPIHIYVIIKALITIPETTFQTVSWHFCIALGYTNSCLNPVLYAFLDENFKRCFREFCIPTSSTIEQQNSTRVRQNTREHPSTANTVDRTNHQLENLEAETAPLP
T4 sequence (P14600 whole entry): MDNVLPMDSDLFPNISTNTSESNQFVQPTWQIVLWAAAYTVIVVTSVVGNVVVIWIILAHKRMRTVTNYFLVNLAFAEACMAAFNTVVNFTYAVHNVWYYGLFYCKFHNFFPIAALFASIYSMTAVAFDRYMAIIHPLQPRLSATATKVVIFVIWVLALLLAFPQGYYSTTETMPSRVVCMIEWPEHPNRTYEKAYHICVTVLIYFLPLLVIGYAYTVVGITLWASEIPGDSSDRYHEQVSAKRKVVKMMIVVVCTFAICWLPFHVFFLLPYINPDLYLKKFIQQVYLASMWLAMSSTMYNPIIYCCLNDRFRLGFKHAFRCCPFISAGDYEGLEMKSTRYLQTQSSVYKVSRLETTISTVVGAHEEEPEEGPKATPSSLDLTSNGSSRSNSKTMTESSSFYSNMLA
T5 sequence (P30547 whole entry): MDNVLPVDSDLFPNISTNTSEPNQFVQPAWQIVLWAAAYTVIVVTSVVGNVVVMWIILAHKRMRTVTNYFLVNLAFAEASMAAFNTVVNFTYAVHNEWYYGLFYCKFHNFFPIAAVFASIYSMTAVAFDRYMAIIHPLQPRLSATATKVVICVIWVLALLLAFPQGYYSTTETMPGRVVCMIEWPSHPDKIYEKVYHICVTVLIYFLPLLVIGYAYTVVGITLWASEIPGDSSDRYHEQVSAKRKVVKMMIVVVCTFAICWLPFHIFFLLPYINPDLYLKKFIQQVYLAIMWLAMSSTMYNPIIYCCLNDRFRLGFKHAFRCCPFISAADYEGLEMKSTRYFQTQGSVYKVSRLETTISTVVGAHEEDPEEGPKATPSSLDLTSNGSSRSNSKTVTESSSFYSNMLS
T2 sequence (P32300 whole entry): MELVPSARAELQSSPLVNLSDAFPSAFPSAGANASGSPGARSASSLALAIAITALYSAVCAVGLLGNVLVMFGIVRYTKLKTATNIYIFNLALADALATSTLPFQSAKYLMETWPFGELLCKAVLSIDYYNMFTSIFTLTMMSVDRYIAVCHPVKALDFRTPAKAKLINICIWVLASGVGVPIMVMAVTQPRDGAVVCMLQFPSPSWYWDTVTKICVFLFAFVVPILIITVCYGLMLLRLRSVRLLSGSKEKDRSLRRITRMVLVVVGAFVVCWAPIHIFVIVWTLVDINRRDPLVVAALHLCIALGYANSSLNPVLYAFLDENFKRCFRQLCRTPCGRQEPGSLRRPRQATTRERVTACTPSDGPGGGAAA
T6 sequence (P25103 whole entry): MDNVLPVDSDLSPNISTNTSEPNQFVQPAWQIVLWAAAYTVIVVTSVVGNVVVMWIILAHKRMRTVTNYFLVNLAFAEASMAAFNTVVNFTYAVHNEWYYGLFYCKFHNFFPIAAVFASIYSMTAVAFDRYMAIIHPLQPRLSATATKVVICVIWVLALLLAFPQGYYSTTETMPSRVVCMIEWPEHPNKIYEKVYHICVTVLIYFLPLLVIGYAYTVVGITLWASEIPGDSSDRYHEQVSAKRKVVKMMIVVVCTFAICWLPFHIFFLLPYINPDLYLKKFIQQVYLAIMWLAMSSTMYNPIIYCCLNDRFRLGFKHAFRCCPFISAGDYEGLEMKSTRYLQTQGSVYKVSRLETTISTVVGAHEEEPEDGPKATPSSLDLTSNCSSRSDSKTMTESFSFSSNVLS

CC(C)C[C@H](NC(=O)[C@H](Cc1ccccc1)NC(=O)CNC(=O)[C@@H](C)NC(=O)[C@@H](N)Cc1ccc(O)cc1)C(=O)N[C@@H](Cc1c[nH]c2ccccc12)C(=O)OCc1cc(C(F)(F)F)cc(C(F)(F)F)c1 [NP37] (HELM PEPTIDE1{Y.[dA].G.F.L.W.[FC(F)(F)c1cc(CO[*:1])cc(C(F)(F)F)c1]}$$$$V2.0; N-terminus assumed)
EC50 ([1]; Table 32, read-out: GTP hDOR EC50): 4.8 nM | Emax ([1]; Table 32, read-out: GTP hDOR EMax): 60% | Ki [2]: 2.9 nM | IC50 (δ opioid receptors (MVD)): 25.7 nM | Ki [3]: 23.3 nM | EC50 ([4]; Table 32, read-out: GTP rMOR EC50): 14 nM | Emax ([4]; Table 32, read-out: GTP rMOR EMax): 54% | Ki (rat NK1 (rNK1) receptor; Affinity (Ki, nM) rNK1, Table 32): 0.29 nM

C[C@@H](NC(=O)[C@@H](N)Cc1ccc(O)cc1)C(=O)N[C@@H](Cc1c[nH]c2ccccc12)C(=O)OCc1cc(C(F)(F)F)cc(C(F)(F)F)c1 [NP43]
EC50 ([1]; Table 33, read-out: GTP EC50 (nM) hDOR): 90.9 nM | Ki ([2]; Table 33, read-out: Ki (nM) hDOR): 100 nM | MVD δ-agonist, % at 1 μM (δ opioid receptors (MVD); Table 36, at 1 μM): 5.5% at 1 μM | Kb ([5]; GPI SP-antagonist Ke (nM), Table 36): 49.4 nM | Ki ([3]; Table 33, read-out: Ki (nM) rMOR): 178 nM | Ki [6]: 0.004 nM | GPI μ-agonist, % at 1 μM (μ opioid receptors (GPI); Table 36, at 1 μM): 3.3% at 1 μM | EC50 ([4]; Table 33, read-out: GTP EC50 (nM) rMOR): 168 nM | Ki (rat NK1 (rNK1) receptor; Ki (nM) rNK1, Table 33): 2.94 nM

CC(C)C[C@H](NC(=O)[C@@H]1CCCN1C(=O)[C@H](Cc1ccccc1)NC(=O)[C@H](Cc1ccccc1)NC(=O)CNC(=O)[C@@H](C)NC(=O)[C@@H](N)Cc1ccc(O)cc1)C(=O)N[C@@H](Cc1c[nH]c2ccccc12)C(=O)OCc1cc(C(F)(F)F)cc(C(F)(F)F)c1 [TY003, H-Tyr-D-Ala-Gly-Phe-Phe-Pro-Leu-Trp-O-3,5-Bzl(CF3)2]
Ki(μ)/Ki(δ) [1]: 2.8 | LogEC50, hDOR, [35S]GTP-γ-S binding [1]: −7.68 ± 0.20 | EC50 [1, 7]: 20.8 nM | Emax [1, 8]: 39% | EC50 [1, 9]: 20.8 nM | Emax [1, 10]: 39% | Emax [1, 11]: 39% | Ki [2]: 14.6 nM | Ki(μ)/Ki(δ) ([2]; binding, rMOR vs hDOR): 1.9 | LogIC50, hDOR, [3H]DPDPE [2]: −7.50 ± 0.14 | IC50 (δ opioid receptors (MVD); [12]): 905 nM | IC50 (δ opioid receptors (MVD); [13]): 905 nM | IC50 (δ opioid receptors (MVD); [14]): 905 ± 186 nM | Kb [5, 15]: 14.4 ± 4.9 nM | GPI/LMMP SP Agonist (IC50; nM) [5, 16]: none | activation at 1 µM [5]: 0% | Ki ([3]; Table 27, read-out: Affinity rMOR (Ki; nM)): 28.3 nM | Ki ([3]; Table 39, read-out: Affinity rMOR (Ki; nM)): 28.3 nM | LogIC50, rMOR, [3H]DAMGO ([3]; membranes from transfected HN9.10 cells): −7.22 ± 0.10 | Ki ([3]; read-out: Ki, rMOR, [3H]DAMGO): 28.3 nM | GPI/LMMP Opioid(m) Agonist, % inh. (μ opioid receptors (GPI)): 7% inh. at 1 mM | GPI/LMMP opioid(mu) Antagonist (μ opioid receptors (GPI); Table 39): none | GPI/LMMP opioid(mu) agonist, % at 1 uM (μ opioid receptors (GPI); Table 39, at 1 uM): 6.6% @ 1 uM | GPI (μ), effect at single concentration (μ opioid receptors (GPI); at 1 μM): 7% at 1 μM^b | LogEC50, rMOR, [35S]GTP-γ-S binding [4]: −7.23 ± 0.18 | EC50 ([4]; Table 27, read-out: GTP binding rMOR EC50): 58.7 nM | Emax ([4]; Table 27, read-out: GTP binding rMOR Emax (%)): 36.3% | EC50 ([4]; Table 39, read-out: GTP binding rMOR EC50): 58.7 nM | Emax ([4]; Table 39, read-out: GTP binding rMOR Emax): 36.3% | Emax ([4]; net total bound/basal binding × 100, read-out: Emax, rMOR, [35S]GTP-γ-S binding): 41% | EC50 ([4]; read-out: EC50, rMOR, [35S]GTP-γ-S binding): 58.7 nM | IC50 (rat NK1 (rNK1) receptor; [17]): 19.3 nM | IC50 (rat NK1 (rNK1) receptor; [18]): 19.1 nM

CCCC[C@@H](C(=O)N1CCC[C@H]1C(=O)N[C@@H](CC(C)C)C(=O)N[C@@H](Cc1c[nH]c2ccccc12)C(=O)OCc1cc(C(F)(F)F)cc(C(F)(F)F)c1)N(C)C(=O)[C@H](Cc1ccccc1)NC(=O)CNC(=O)[C@@H](C)NC(=O)[C@@H](N)Cc1ccc(O)cc1 [TY019, H-Tyr-D-Ala-Gly-Phe-N-Me-Nle-Pro-Leu-Trp-O-3,5-Bzl(CF3)2]
LogEC50, hDOR, [35S]GTP-γ-S binding [1]: −6.44 ± 0.27 | EC50 [1, 7]: 364 nM | Emax [1, 8]: 316% | EC50 [1, 9]: 364 nM | Emax [1, 10]: 283% | Emax [1, 11]: 283% | LogIC50, hDOR, [3H]DPDPE [2]: −6.79 ± 0.13 | IC50 (δ opioid receptors (MVD); [12]): 188 nM | IC50 (δ opioid receptors (MVD); [13]): 188 nM | IC50 (δ opioid receptors (MVD); [14]): 188 ± 21 nM | IC50 [5]: 4.6 nM | Kb [5, 15]: 4.6 ± 1.2 nM | GPI/LMMP SP Agonist, % inh. ([5]; Table 28): 2% inh. at 1 mM | GPI/LMMP SP Agonist, % @ 1 uM ([5]; Table 39, @ 1 uM): 1.6%@ 1 uM | activation at 1 µM [5]: 2% | GPI/LMMP Opioid(m) Agonist, % inh. (μ opioid receptors (GPI)): 12% inh. at 1 mM | GPI/LMMP opioid(mu) agonist, % (μ opioid receptors (GPI); [16]): 11.90% | GPI (μ), effect at single concentration (μ opioid receptors (GPI); at 1 μM): 12% at 1 μM^b | IC50 (rat NK1 (rNK1) receptor; [17]): 135 nM | IC50 (rat NK1 (rNK1) receptor; [18]): 112 nM
